Results published in PubChem BioAssay (NCI).
Several values for one entry are separate records, joined by “and”; a condition that tells them apart may be missing. Identical values can stand only once.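 Tested at 5 concentrations; 48 h exposure; 96-well plates; endpoints linearly interpolated, else capped at highest concentration. GI50: concentration for 50% inhibition of growth. At the TGI there is no net growth.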

Experiments:
Experiment in all cases: NCI tumour cell line growth inhibition, 48 h
[1] = system: SNB-19 CNS
[2] = system: HCC-2998 colon
[3] = system: A498 renal
[4] = system: HCT-15 colon
[5] = system: OVCAR-5 ovarian
[6] = system: MCF7 breast
[7] = system: NCI-H460 lung
[8] = system: NCI-H23 lung
[9] = system: MALME-3M melanoma
[10] = system: COLO 205 colon
[11] = system: NCI-H522 lung
[12] = system: NCI-H226 lung
[13] = system: OVCAR-3 ovarian
[14] = system: CCRF-CEM leukemia
[15] = system: A549 NSCLC
[16] = system: T-47D breast
[17] = system: K-562 leukemia
[18] = system: DU-145 prostate
[19] = system: OVCAR-8 ovarian
[20] = system: SK-OV-3 ovarian
[21] = system: U251 CNS
[22] = system: SR leukemia
[23] = system: HCT-116 colon
[24] = system: SNB-75 CNS
[25] = system: MDA-MB-231 breast
[26] = system: HOP-92 NSCLC
[27] = system: SK-MEL-28 melanoma
[28] = system: SF-539 CNS
[29] = system: RPMI-8226 leukemia
[30] = system: RXF 393 renal
[31] = system: HOP-62 NSCLC
[32] = system: PC-3 prostate
[33] = system: 786-0 renal
[34] = system: CAKI-1 renal
[35] = system: BT-549 breast
[36] = system: M14 melanoma
[37] = system: MDA-N
[38] = system: SF-268 CNS
[39] = system: SW-620 colon
[40] = system: MDA-MB-435
[41] = system: ACHN renal
[42] = system: KM12 colon
[43] = system: IGROV1 ovarian
[44] = system: SF-295 CNS
[45] = system: SK-MEL-2 melanoma
[46] = system: OVCAR-4 ovarian
[47] = system: NCI/ADR-RES ovarian
[48] = system: UACC-62 melanoma
[49] = system: UACC-257 melanoma
[50] = system: EKVX NSCLC
[51] = system: UO-31 renal
[52] = system: HT29 colon
[53] = system: HL-60(TB) leukemia
[54] = system: HS 578T breast
[55] = system: SK-MEL-5 melanoma
[56] = system: SN12C renal
[57] = system: TK-10 renal
[58] = system: LOX IMVI melanoma
[59] = system: MOLT-4 leukemia

With `CN(C)c1nc(N(C)C)nc(N(C)C23CC4CC(CC(C4)C2)C3)n1` the TGI [1] was 96 µM, the TGI [2] was 85.3 µM and the TGI [3] was over 100 µM. It also gave a TGI [4] of over 100 µM, a TGI [5] of over 100 µM and a TGI [6] of over 100 µM. The TGI [7] was over 100 µM, the TGI [8] was 34.1 µM and the TGI [9] was 95.7 µM. For the same molecule, the TGI [10] was 32.7 µM, the TGI [11] was 41 µM and the TGI [12] was over 100 µM. The TGI [13] was over 100 µM, the TGI [14] was 66.6 µM and the TGI [15] was over 100 µM. For the same molecule, the TGI [16] was over 100 µM, the TGI [17] was over 100 µM and the TGI [18] was over 100 µM. The TGI [19] was over 100 µM, the TGI [20] was over 100 µM and the TGI [21] was over 100 µM. The TGI [22] was over 100 µM, the TGI [23] was 58.8 µM and the TGI [24] was 86 µM. The TGI [25] was 77.4 µM, the TGI [26] was 55.8 µM and the TGI [27] was over 100 µM. The TGI [28] was over 100 µM, the TGI [29] was 74.9 µM and the TGI [30] was 67.9 µM. The TGI [31] was over 100 µM, the TGI [32] was 72 µM and the TGI [33] was over 100 µM. The TGI [34] was over 100 µM, the TGI [35] was 63.4 µM and the TGI [36] was over 100 µM. The TGI [37] was 53.7 µM, the TGI [38] was over 100 µM and the TGI [39] was over 100 µM. It also gave a TGI [40] of over 100 µM, a TGI [41] of over 100 µM and a TGI [42] of over 100 µM. The TGI [43] was 58.8 µM, the TGI [44] was over 100 µM and the TGI [45] was 55.5 µM. For the same molecule, the TGI [46] was over 100 µM, the TGI [47] was over 100 µM and the TGI [48] was over 100 µM. For the same molecule, the TGI [49] was over 100 µM, the TGI [50] was over 100 µM and the TGI [51] was over 100 µM.

With `CC(CN(C)C)Nc1c2ccccc2nc2cccc([N+](=O)[O-])c12` (stereo not drawn) the TGI [6] was 0.636 µM, the GI50 [7] was 0.0248 µM and < 0.0111 µM and the TGI [7] was 0.206 µM and 0.711 µM. For the same molecule, the TGI [11] was 0.111 µM, the TGI [52] was 1.02 µM and 0.413 µM and the TGI [14] was 2.87 µM. For the same molecule, the TGI [17] was 0.764 µM, the GI50 [18] was 0.0747 µM and < 0.0219 µM and the TGI [18] was 11.9 µM. The GI50 [23] was 0.026 µM and < 0.01 µM, the GI50 [24] was 0.342 µM and 0.0431 µM and the TGI [24] was 1.59 µM and 0.268 µM. For the same molecule, the TGI [25] was 2.64 µM, the GI50 [26] was 0.226 µM and 0.0258 µM and the GI50 [28] was 0.337 µM and < 0.0378 µM. For the same molecule, the TGI [28] was 1.31 µM, the TGI [30] was 14.9 µM and the GI50 [31] was 0.12 µM and < 0.013 µM. It also gave a GI50 [35] of 0.54 µM, a TGI [35] of 1.9 µM and a TGI [37] of 0.748 µM. The GI50 [39] was 0.306 µM, the TGI [39] was 11.8 µM and the TGI [43] was 10.1 µM. For the same molecule, the GI50 [44] was 0.0968 µM and < 0.01 µM, the GI50 [53] was 0.0182 µM and the GI50 [54] was under 0.01 µM. The TGI [54] was under 0.01 µM, the TGI [46] was 0.61 µM and 5.21 µM and the GI50 [55] was 0.0715 µM and < 0.01 µM. For the same molecule, the GI50 [51] was 0.188 µM and < 0.0237 µM and the TGI [51] was 0.457 µM and 0.887 µM.

In the case of `COc1nc(N(C)C)nc2c1n(C)c[n+]2C`, the TGI [1] was over 100 µM, the TGI [3] was over 100 µM and the TGI [4] was over 100 µM. The TGI [56] was over 100 µM, the TGI [5] was over 100 µM and the TGI [7] was over 100 µM. The TGI [8] was over 100 µM, the TGI [9] was over 100 µM and the TGI [10] was over 100 µM. The TGI [11] was over 100 µM, the TGI [12] was over 100 µM and the TGI [52] was over 100 µM. For the same molecule, the TGI [13] was over 100 µM, the TGI [14] was over 100 µM and the TGI [15] was over 100 µM. It also gave a TGI [16] of over 100 µM, a TGI [17] of over 100 µM and a TGI [18] of over 100 µM. The TGI [19] was over 100 µM, the TGI [20] was over 100 µM and the TGI [21] was over 100 µM. For the same molecule, the TGI [23] was over 100 µM, the TGI [24] was over 100 µM and the TGI [57] was over 100 µM. For the same molecule, the TGI [25] was over 100 µM, the TGI [26] was over 100 µM and the TGI [27] was over 100 µM. The TGI [28] was over 100 µM, the TGI [29] was over 100 µM and the TGI [30] was over 100 µM. It also gave a TGI [31] of over 100 µM, a TGI [32] of over 100 µM and a TGI [58] of over 100 µM. It also gave a TGI [33] of over 100 µM, a TGI [34] of over 100 µM and a TGI [59] of over 100 µM. The TGI [35] was over 100 µM, the TGI [36] was over 100 µM and the TGI [37] was over 100 µM. It also gave a TGI [38] of over 100 µM, a TGI [39] of over 100 µM and a TGI [40] of over 100 µM. The TGI [41] was over 100 µM, the TGI [42] was over 100 µM and the TGI [43] was over 100 µM. It also gave a TGI [44] of over 100 µM, a TGI [53] of over 100 µM and a TGI [54] of over 100 µM. It also gave a TGI [45] of over 100 µM, a TGI [55] of over 100 µM and a TGI [47] of over 100 µM. The TGI [48] was over 100 µM, the TGI [49] was over 100 µM and the TGI [50] was over 100 µM. The TGI [51] was over 100 µM.
